# Legend:
# FABP4 = FABP4 (Homo sapiens, UniProt P15090); test: TdF (Temperature Dependence Fluorescence) thermal shift assay for FABP4; type: binding; details: 3 μM protein; 15, 50 or 100 μM compound; Kd from ΔTm
# Excerpt: TdF (Temperature Dependence Fluorescence) Assay for FABP3 and FABP4
# The SAR (Structure Activity Relationship) for FABP3 and FABP4 ligands covered by this invention was interrogated using the TdF (Temperature Dependence Fluorescence) assay or best known as thermal shift assay (M. W. Pantoliana et al, J. Biomol. Screen 6 (2001) 429-440). The TdF assay was mainly conducted in the 96-well based CHROMO-4 real time fluorescence plate reader (BioRad). The Sypro Orange (Sigma-Aldrich), environmentally sensitive fluorescence dye, was used to monitor the protein folding-unfolding transition. Protein-ligand binding was gauged by the change (or shift) in the unfolding transition temperature (ΔTm) acquired at protein alone with respect to protein in the presence of ligand of interest.
# The compound of interest was first prepared in DMSO stock (typical concentration: 10 mM). Sample of 20 μL was then added into the 96-well PCR plate, where it consisted of 3 μM protein (FABP4 or FABP3) and 15, 50 or 100 μM compound (depending on compound's solubility) in buffer (25 mM HEPES, 150 mM NaCl, pH=7.5 and 1 mM DTT) incorporated with Sypro Orange dye (5× final concentration). Final percentage of DMSO resided in the sample was 2%. The sample plate was heated from 30° C. to 90° C. with thermal ramping rate of 1° C./min. The fluorescence signals were acquired with excitation and emission wavelengths centered at 490 and 560 nm respectively. The instrument thermal stability was ±0.2° C. The melting Temperatures™ for FABP4 and FABP3 proteins under aforementioned conditions occurred at 61.0±0.2° C. and 64.8±0.2° C. respectively.
# Theoretical Basis for TdF-Based Ligand Binding Affinity Constant
# The derivation of TdF-based ligand binding affinity constant (Kd) followed closely those previously formulated by Brandts and Lin, Biochemistry 29 (1990) 6927-6940. In brief, the binding constant of the ligand at the Tm is expressed as below:
# [formula] where T0 is the midpoint of unfolding for unliganded protein and Tm is the midpoint of unfolding in presence of ligand. [LTm] is free ligand at Tm. The ΔHu and ΔCpu are the enthalpy of unfolding and heat capacity change of unfolding for the protein respectively. The ΔCPu is proportional to the size of protein and is an approximate quantity in the above equation (empirically, ΔCpu=(MW of protein/115)*14 cal/mol*K). Following algorithm derived by Mayhood et al, (Analytical Biochemistry 345 (2005) 187-197), the T0 and ΔHu can be determined separately from nonlinear regression fitting the temperature dependent protein alone curve to the following equation: […]
# Where F(T) is the observed fluorescence intensity at any temperature T, Yn and Yu are the predicted fluorescence intensities for fully folded and unfolded protein, respectively; mn and mu are slope correction for changes in Yn and Yu with respect to changes in temperature (analogously replace T0 with Tm in the above equation for liganded protein to yield Tm). The nonlinear regression fitting in general readily reaches convergence by properly constraining the initial values for the fitting parameters (e.g. the initial “guess” for the ΔHu was constrained to 120 kcal/mol; initial Yn and mn were set to 1 and zero to best represent the melting curve along the low temperature region; negative slope of −0.5 was initially chosen for mu; initial Tm was also constrained to 50° C.).
# Finally, the ligand binding affinity constant at any temperature T 25° C.) can be thermodynamically connected to the preceding KL™ via
# [formula] (see Brandts et al and Mayhood et al, shown above) where ΔHL (T) is the van't Hoff enthalpy of ligand binding at temperature T and ΔCpL is the heat capacity upon ligand binding. For simplicity, the ΔCpL and ΔHL (T) were set to zero and −7 kcal/mol respectively. […]
# FABP5 = FABP5 (Homo sapiens, UniProt Q01469); test: TdCD (Temperature-Dependent Circular Dichroism) assay for FABP5; type: binding; details: compounds at 50 μM and 25 μM; Kd calculated at T=20° C.; 50% uncertainty
# Excerpt: [formula] (see Brandts et al and Mayhood et al, shown above) where ΔHL (T) is the van't Hoff enthalpy of ligand binding at temperature T and ΔCpL is the heat capacity upon ligand binding. For simplicity, the ΔCpL and ΔHL (T) were set to zero and −7 kcal/mol respectively. (The ΔCpL accounts for minimal portion of total protein-ligand binding energetics and is therefore set to zero (For example, see Hossein Naghibi et al, Proc. Natl. Acad. Sci. 92, 5597-5599 (1995), where ΔCpL was estimated to ˜2% of ΔHL at 25° C. obtained from calorimetric study of binding Rnase A and 2′-CMP)). TdCD (Temperature-Dependent Circular Dichroism) Assay for FABP3/4/5
# JASCO 810 spectropolarimeter was used to measure Circular Dichroism (CD) spectra and temperature-dependent protein unfolding profiles. The instrument is equipped with a 6-cell piezoelectric temperature controller. Ellipticity was monitored at 226 nm as a function of temperature with a 1 mm path length cell. The scan rate was 1° C./min with a 4 s response time and 30 s equilibration between measurements.
# Stock protein FABP5 (3.5 mgs/mL), FABP4 (1.8 mgs/mL) and FABP3 (3 mgs/mL) were diluted to 10-15 μM with 25 mM HEPES pH 7.5, 150 mM NaCl, 1 mM DTT. 10 mM stocks of individual compounds were made in 100% DMSO. The compounds were tested at 50 μM and 25 μM concentrations. DMSO was added to protein-alone (apo) samples to 1% to compensate for DMSO amounts in protein+ligand samples. Data were analyzed using Jasco software and the midpoints of the protein unfolding Transitions™, and the ligand binding constants (KL) were calculated as previously described (See, for example, Mayhood et al, Analytical Biochemistry 345 (2005) 187-197; Smith et al, Biochemistry 46 (2007) 1358-1367; Brandts et al, Biochemistry 29 (1990) 6927-6940; and Matulis et al, Biochemistry 44 (2005) 5258-5266).
# Briefly, the To (midpoint of unfolding for the unliganded protein) was calculated from best fit of the unfolding data to the equation below:
# [formula] Where, Yobs is the observed ellipticity value at any temperature T, Yn and Yu are the predicted ellipticity values for fully folded and unfolded species, respectively, mn and mu are slope correction for changes in Yn and Yu with respect to changes in temperature. To is the midpoint temperature at which the unliganded protein unfolds and ΔHu and ΔCpu are the heat of unfolding and heat capacity of unfolding, respectively for the unliganded species.
# In presence of ligand, the midpoint Temperature™ defines where the equilibrium concentrations of unfolded and folded species are equal. Incorporation of the unliganded free energy of binding and subsequent thermodynamic substitution yielded the binding constant of the ligand at the Tm value of unfolding:
# [formula] where, T0 is the midpoint of unfolding for unliganded protein and Tm is the midpoint of unfolding in presence of ligand. [LTm] is free ligand at Tm.
# Based on estimates for enthalpy of binding, ΔHL (estimated to be −7 kcal/mol) and ligand binding heat capacity ΔCpL (set to be zero), the ligand binding association constant (KL) at temperature T=20° C. were calculated as below. Based on reasonable boundary change of the estimated ligand binding ΔHL, a 50% uncertainty was uniformly assigned to the calculated TdCD Kd (1/KL) values at T=20° C.
# Sequence of FABP4 (P15090 whole entry): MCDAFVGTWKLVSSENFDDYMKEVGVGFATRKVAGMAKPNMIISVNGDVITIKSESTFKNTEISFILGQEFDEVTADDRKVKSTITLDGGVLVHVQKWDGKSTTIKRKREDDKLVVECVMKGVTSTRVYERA
# Sequence of FABP5 (Q01469 whole entry): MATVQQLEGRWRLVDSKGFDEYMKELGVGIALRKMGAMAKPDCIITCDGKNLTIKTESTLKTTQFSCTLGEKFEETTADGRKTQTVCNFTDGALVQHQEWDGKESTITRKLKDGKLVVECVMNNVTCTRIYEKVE
SMILES,Kd (FABP4) [nM],Kd (FABP5) [nM]
CN(Cc1ccc(C(F)(F)F)cc1)Cc1cc(=O)n2nc(-c3ccccc3)nc2[nH]1 [1-53],200 to 5000,500 to 100000
O=c1cc(COC(c2ccccc2)C2CC2)[nH]c2nc(-c3ccccc3)nn12 (stereo not shown) [1-116],200 to 5000,500 to 100000
CC(OCc1cc(=O)n2nc(-c3ccccc3)nc2[nH]1)c1ccccc1Cl (stereo not shown) [1-117],1 to 200,500 to 100000
O=c1cc(COCC2(c3cccc(F)c3)CC2)[nH]c2nc(-c3ccccc3)nn12 [1-119],1 to 200,500 to 100000
CC(C)(Cc1ccccc1)OCc1cc(=O)n2nc(-c3ccccc3)nc2[nH]1 [1-120],1 to 200,500 to 100000
CCC(OCc1cc(=O)n2nc(-c3ccccc3)nc2[nH]1)C1CCCCC1 (stereo not shown) [1-121],1 to 200,500 to 100000
CCC[C@H](OCc1cc(=O)n2nc(-c3ccccc3)nc2[nH]1)c1ccccc1 [1-122],> 5000,500 to 100000
CC[C@H](OCc1cc(=O)n2nc(-c3ccccc3)nc2[nH]1)c1ccccc1 [1-123],> 5000,500 to 100000
CC(OCc1cc(=O)n2nc(-c3ccccc3)nc2[nH]1)C1CCCCC1 (stereo not shown) [1-124],1 to 200,500 to 100000
O=c1cc(COCC2CCCCC2)[nH]c2nc(-c3ccccc3)nn12 [1-125],1 to 200,500 to 100000
O=c1cc(COC(CC2CC2)c2ccccc2)[nH]c2nc(-c3ccccc3)nn12 (stereo not shown) [1-126],200 to 5000,500 to 100000
O=c1cc(COCc2cccnc2F)[nH]c2nc(-c3ccccc3)nn12 [1-127],200 to 5000,500 to 100000
O=c1cc(COCc2cccnc2Cl)[nH]c2nc(-c3ccccc3)nn12 [1-128],200 to 5000,500 to 100000
O=c1cc(COCC2(c3cccc(C(F)(F)F)c3)CC2)[nH]c2nc(-c3ccccc3)nn12 [1-129],1 to 200,500 to 100000
C=CCC(OCc1cc(=O)n2nc(-c3ccccc3)nc2[nH]1)c1ccccc1Cl (stereo not shown) [1-130],1 to 200,500 to 100000
CC(OCc1cc(=O)n2nc(-c3ccccc3)nc2[nH]1)c1ccccc1F (stereo not shown) [1-132],200 to 5000,500 to 100000

SMILES,Kd (FABP4) [nM],Kd (FABP5) [nM]
O=C(O)c1cccc(COCc2cc(=O)n3nc(-c4ccccc4)nc3[nH]2)c1 [1-133],200 to 5000,500 to 100000
O=c1cc(CNC2(c3cccc(C(F)(F)F)c3)CC2)[nH]c2nc(-c3ccccc3)nn12 [1-137],200 to 5000,500 to 100000
O=c1cc(CNCC2(c3cccc(C(F)(F)F)c3)CC2)[nH]c2nc(-c3ccccc3)nn12 [1-138],200 to 5000,500 to 100000
O=c1cc(COCc2ccccc2C(F)(F)F)[nH]c2nc(-c3ccccc3)nn12 [1-140],> 5000,500 to 100000
O=c1cc(COCc2ccccc2)[nH]c2nc(-c3ccccc3)nn12 [1-144],200 to 5000,500 to 100000
O=c1cc(COCc2cccc(Cl)c2Cl)[nH]c2nc(-c3ccccc3)nn12 [1-145],200 to 5000,500 to 100000
CCC(OCc1cc(=O)n2nc(-c3ccccc3)nc2[nH]1)c1ccccc1Cl (stereo not shown) [1-153],1 to 200,500 to 100000
O=c1cc(COCc2ccccc2Cl)[nH]c2nc(-c3ccccc3)nn12 [1-154],1 to 200,500 to 100000
Cc1c(Cl)cccc1OC(C)(C)COCc1cc(=O)n2nc(-c3ccccc3)nc2[nH]1 [27-3],1 to 200,500 to 100000
Cc1ccccc1OC(C)(C)COCc1cc(=O)n2nc(-c3ccccc3)nc2[nH]1 [27-4],1 to 200,500 to 100000
O=c1cc(COCC(O)c2ccccc2Cl)[nH]c2nc(-c3ccccc3)nn12 (stereo not shown) [34-1],> 5000,500 to 100000
O=c1cc(COC(CO)c2ccccc2Cl)[nH]c2nc(-c3ccccc3)nn12 (stereo not shown) [34-2],> 5000,500 to 100000
CC(Cc1cc(=O)n2nc(-c3ccccc3)nc2[nH]1)(Oc1cccc(Cl)c1)C(=O)O (stereo not shown) [35-4],> 5000,500 to 100000
CC(Cc1cc(=O)n2nc(-c3ccccc3)nc2[nH]1)(Oc1cccc(Cl)c1)C(=O)NCC1(c2ccccc2Cl)CC1 (stereo not shown) [35-5],1 to 200,500 to 100000
COC(C)(Cc1cc(=O)n2nc(-c3ccccc3)nc2[nH]1)C(=O)NCC1(c2ccc(Cl)cc2)CCC1 (stereo not shown) [36-2],1 to 200,500 to 100000
[2H]C([2H])([2H])OC(C(=O)NCC1(c2ccc(Cl)cc2)CCC1)(C([2H])([2H])[2H])C([2H])([2H])c1cc(=O)n2nc(-c3ccccc3)nc2[nH]1 (stereo not shown) [37-2],1 to 200,500 to 100000
